Laboratory results: patent publication US6030963A, “16-ene-26,27-bishomo cholecalciferols” (Hoffmann-La Roche Inc., priority 1998, dated 2000)

What was measured:
[1] = Calcium tolerance test in mice (weight gain, highest tolerated dose); conditions: mouse, in vivo, sc, daily subcutaneous, 4 consecutive days, body weight before and at end of 5 day treatment period, read-out: HTD (highest tolerated dose: dose which results in zero weight gain during treatment period)
From the text: Calcium Tolerance Test In Mice
Profound changes in calcium homeostasis strongly affect the weight development of mice.
Mice (25-30 g body weight) received daily subcutaneous administrations of the compound for 4 consecutive days. Body weight was registered just before and at the end of a […] treatment period. The "highest tolerated dose" (HTD) is the dose which results in zero weight gain during this treatment period.

HL-60 cells = assay: HL-60 cell differentiation (NBT reduction, oxidative burst potential); format: cell-based; conditions: Homo sapiens, 72 h, 3 days incubation, NBT reduction at 540 nm, mean of 3 wells, S.E.M. between 5 and 10%, read-out: ED50 (concentration leading to 50% of maximal differentiation achieved with 100-1000 nM calcitriol)
Protocol: HL-60 Cell Differentiation
The induction of differentiation of HL-60 cells was assayed by measuring their oxidative burst potential via the reduction of nitrobluetetrazolium (NBT).
HL-60 cells (30,000 cells in 90 μl of supplemented RPMI medium) were seeded into flat-bottomed microliter wells. Immediately after seeding, 10 μl of test compounds listed below in Table I diluted in supplemented RPMI medium were added to the wells to yield final concentrations of between 10^-11 and 10^-6 M (starting from stock solutions of 10^-2 M in ethanol, stored at -20° C. and protected from light). After 3 days, medium was removed from the wells with a multichannel pipette and replaced with 100 μl of NBT solution (1 mg/ml in phosphate buffered saline with 200 nM phorbol myristate acetate). Following an additional hour incubation at 37° C. the NBT solution was removed and 100 μl of 10% sodium dodecyl sulfate in 0.01 N HCl was added. The amount of the reduced NBT was quantified photometrically at 540 nm using an automated plate reader. The mean of 3 wells was calculated. […] Values were expressed as percent of maximal differentiation achieved with 100-1000 nM calcitriol in the same experiment.

| Structure (SMILES) | MTD [1] | EC50 (HL-60 cells) |
| --- | --- | --- |
| C=C1/C(=C\C=C2/CCC[C@]3(C)C([C@H](C)C/C=C/C(O)(CC)CC)=CC[C@@H]23)C[C@@H](O)C[C@@H]1O [1,25-Dihydroxy-16,23E-diene-26,27-bishomo-cholecalciferol] | 2 µg/kg | 3.8 nM |
| C=C1/C(=C\C=C2/CCC[C@]3(C)C([C@H](C)C/C=C\C(O)(CC)CC)=CC[C@@H]23)C[C@@H](O)C[C@@H]1O [1,25-Dihydroxy-16,23Z-diene-26,27-bishomo-cholecalciferol] | 2.5 µg/kg | 6.2 nM |
| C=C1/C(=C\C=C2/CCC[C@]3(C)C([C@H](C)CC#CC(O)(CC)CC)=CC[C@@H]23)C[C@@H](O)C[C@@H]1O [1,25-Dihydroxy-16-ene-23-yne-26,27-bishomo-cholecalciferol] | 4 µg/kg | 2.5 nM |
